Measurements published in patent publication US11247976B2, “Synthetic ligands that modulate the activity of the RhlR quorum sensing receptor” (Wisconsin Alumni Research Foundation, priority 2016, dated 2022).
“Also recorded” adds a separate entry of the source. Marks after values point to notes of the source that are not given here.

Legend:
RhlR [1] = target: T1, RhlR (Pseudomonas aeruginosa, UniProt P54292); assay: E. coli RhlR reporter agonism assay (JLD271/pJN105R2/pSC11-rhlI*); format: cell-based, P. aeruginosa; settings: for activation at 10 µM: compound at 10 μM, RhlR activity relative to 1 mM BHL; for Emax: read-out: Maximum Activation (%)
T1 construct: expressed in transfected cells; host or cells: E. coli JLD271 (ΔsdiA) with pJN105R2 (arabinose-induced) and pSC11-rhlI*

LasR [2] = target: T2, LasR (Pseudomonas aeruginosa, UniProt P25084); assay: Selectivity of RhlR agonism over LasR agonism (E. coli LasR reporter JLD271/pJN105L/pSC11); format: cell-based, P. aeruginosa; settings: RhlR % activity divided by LasR % activity, > = negligible activity in LasR reporter
T2 construct: expressed in transfected cells; host or cells: E. coli JLD271 (ΔsdiA) with pJN105L and pSC11
Experimental: (§1) All media and reagents for bacterial culture were purchased from commercial sources. Bacteria were cultured in Luria-Bertani broth (LB) at 37° C. with shaking at 200 rpm unless otherwise noted. The bacterial reporter strains used for this study were (i) the heterologous E. coli strain JLD271 (ΔsdiA) harboring the RhlR expression plasmid pJN105R2 and the rhlI-lacZ transcriptional fusion reporter pSC11-rhlI*, (ii) the heterologous E. coli strain JLD271 (ΔsdiA) harboring the LasR expression plasmid pJN105L and the […] transcriptional fusion reporter pSC11, and (iii) the P. aeruginosa strain PAO-JP2 (ΔlasrhlI) harboring the rhlI-gfp transcriptional fusion reporter prhlI-LVAgfp. Reporter strains JLD271/pJN105R2/pSC11-rhlI* and JLD271/pJN105L/pSC11 were grown in LB containing 100 μg/mL ampicillin and 10 μg/mL gentamicin. Freezer stocks of bacterial strains were maintained at −80° C. in 1:1 LB:50% glycerol.
To evaluate the modulatory activities of library compounds on RhlR and LasR using E. coli reporters, the strains JLD271/pJN105R2/pSC11-rhlI* and JLD271/pJN105L/pSC11 were used, respectively, as previously described.^38, 51 The following modifications were used in the RhlR agonism reporter assay, non-native compounds (10 μM or 1 mM) were compared to 1 mM BHL as the positive control. Briefly, a subculture was prepared by diluting an overnight culture 1:10 with fresh media containing 100 μg/mL ampicillin and 10 μg/mL gentamicin, and was incubated until it had grown to OD600=0.45. In all assays, L-arabinose was added to a final concentration of 4 mg/mL to induce RhlR expression. For RhlR agonism assays, activities of test compounds were measured relative to 1 mM BHL (the concentration required to induce a maximal level of RhlR activity). For RhlR antagonism assays, test compounds were competed against a concentration of BHL approximately equal to its EC50 value (10 μM). Activity was measured relative to 10 μM BHL. Inhibition was calculated by subtracting 100% from the relative activity value. Thus, 0% inhibition mimics represents no competitive displacement of 10 μM BHL by a test compound. In all assays, modifications were made to the standard Miller assay protocol to accommodate the use of the chlorophenol red-β-D-galactopyranoside (CPRG) β-galactosidase substrate. After cell lysis, 150 μL of the aqueous layer was transferred from each well of a solvent-resistant 96-well microtiter plate to the wells of a new clear, flat-bottom 96-well microtiter plate. CPRG (4 mg/mL in phosphate-buffered saline) was added to each well in 25 μL volumes. Plates were incubated at 30° C. until the positive control wells developed a red color (approximately 30 min). The amount of processed CPRG substrate was assessed by measuring the absorbance of each well at 570 nm. Enzymatic activity was calculated using the following equation: adjusted Miller units=1000·Abs570/(OD600·t·V),
LasR assays were processed using the protocol for the substrate ortho-nitrophenyl-β-galactoside (ONPG) as previously described elsewhere.^53; and LasR antagonism assays were performed versus the EC50 for OdDHL (2 nM).
The selectivity of certain compounds for RhlR over LasR was measured using a LasR reporter strain (details above). Table 6 provides a comparison of selectivity of RhlR agonism over LasR agonism for exemplary compounds. Table 7 provides a comparison of selectivity of RhlR antagonism over LasR antagonism for exemplary compounds.

RhlR [3] = target: T1, RhlR; assay: P. aeruginosa RhlR reporter agonism assay (PAO-JP2/prhlI-LVAgfp); format: cell-based; settings: for Emax: read-out: Maximum Activation (%)
RhlR [4] = target: T1, RhlR; assay: P. aeruginosa RhlR reporter antagonism assay vs 10 μM BHL (PAO-JP2/prhlI-LVAgfp); format: cell-based
Experimental: FIGS. 10A and B illustrate exemplary dose-response curves for RhlR antagonism in the E. coli JLD271/pJN105R2/pSC11-rhlI* reporter strain vs. 10 μM BHL (FIG. 10A) and in the P. aeruginosa PAO-JP2/prhlI-LVAgfp reporter strain vs. 10 μM BHL (FIG. 10B).
To evaluate the RhlR-modulatory activities of selected compounds in P. aeruginosa, the ΔlasIrhlI strain PAO-JP2 harboring plasmid prhlI-LVAgfp was used as previously reported.^38 Briefly, a subculture was prepared by diluting an overnight culture 1:100 in fresh LB and was grown to OD600=0.3. […] Subculture was treated with 100 nM OdDHL (to induce native expression of RhlR) by adding the appropriate amount of OdDHL stock solution in DMSO. The subculture was then dispensed ([…] aliquots) into each synthetic compound-containing well of the microtiter plate.
Plates were incubated at 37° C. for 6 h, and GFP production was monitored by using a Synergy 2 plate reader (λex=500 nm, λem=540 nm; BioTek, Winooski, Vt.) and quantified with Gen5 1.05 software (BioTek). The final OD600 for each well was measured to normalize GFP production to cell density. All synthetic compounds were tested in triplicate, and three separate trials were performed with unique cultures. Agonism dose-response analyses were performed by testing compounds over a range of concentrations with the RhlR reporter.

LasR [5] = target: T2, LasR; assay: Selectivity of RhlR antagonism over LasR antagonism (E. coli LasR reporter, vs 2 nM OdDHL); format: cell-based, P. aeruginosa; settings: RhlR % antagonism divided by LasR % antagonism
Experimental: as §1, with “Reporter strains JLD271/pJN105R2/pSC11-rhlI* and JLD271/pJN105L/pSC11 were grown in LB containing 100 μg/mL ampicillin and 10 μg/mL gentamicin. Freezer stocks of bacterial strains were maintained at −80° C. in 1:1 LB:50% glycerol.” left out
To evaluate the modulatory activities of library compounds on RhlR and LasR using E. coli reporters, the strains JLD271/pJN105R2/pSC11-rhlI* and JLD271/pJN105L/pSC11 were used, respectively, as previously described.^38, 51 The following modifications were used in the RhlR agonism reporter assay, non-native compounds (10 μM or 1 mM) were compared to 1 mM BHL as the positive control. […] For RhlR agonism assays, activities of test compounds were measured relative to 1 mM BHL (the concentration required to induce a maximal level of RhlR activity). […] Activity was measured relative to 10 μM BHL. Inhibition was calculated by subtracting 100% from the relative activity value. […]

T1 sequence (P54292 whole entry): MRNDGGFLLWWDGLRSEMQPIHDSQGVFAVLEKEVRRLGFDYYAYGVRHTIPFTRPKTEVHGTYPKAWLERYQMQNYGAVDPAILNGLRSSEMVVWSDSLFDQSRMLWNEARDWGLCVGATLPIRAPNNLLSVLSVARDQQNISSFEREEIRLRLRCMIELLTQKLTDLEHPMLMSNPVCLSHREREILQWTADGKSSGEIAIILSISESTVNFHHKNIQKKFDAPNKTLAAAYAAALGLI
T2 sequence (P25084 whole entry): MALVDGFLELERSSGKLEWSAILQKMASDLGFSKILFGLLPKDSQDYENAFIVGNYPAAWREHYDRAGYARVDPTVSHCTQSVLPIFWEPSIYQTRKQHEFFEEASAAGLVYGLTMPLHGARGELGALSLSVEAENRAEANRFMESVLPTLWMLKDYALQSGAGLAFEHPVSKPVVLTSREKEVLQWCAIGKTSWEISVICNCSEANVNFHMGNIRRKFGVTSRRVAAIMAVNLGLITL

| SMILES | EC50 (RhlR [1]) [µM] | activation at 10 µM (RhlR [1]; E. coli reporter) [%] | Emax (RhlR [1]) [%] | Fold selectivity of RhlR agonists over LasR agonism (LasR [2]; tested concentration 1 mM) | Fold selectivity of RhlR agonists over LasR agonism (LasR [2]; tested concentration 10 μm) | EC50 (RhlR [3]) [µM] | Emax (RhlR [3]) [%] | concentration blocking native ligand activity by 50%, relative to EC50 of native ligand (RhlR [4]; P. aeruginosa) | RhlR antagonist activity in words (RhlR [4]; P. aeruginosa reporter vs 10 μM BHL) | IC50 (RhlR [4]; P. aeruginosa reporter vs 10 μM BHL, read-out: IC50 for RhlR inhibition) [µM] | Maximum Inhibition (%) (RhlR [4]; P. aeruginosa reporter, relative to activation of 10 μM BHL alone) | Fold selectivity of RhlR antagonist over LasR antagonism (LasR [5]; tested concentration 1 mM) [fold] | Fold selectivity of RhlR antagonist over LasR antagonism (LasR [5]; tested concentration 10 μm) [fold] | RhlR agonist potency in words (RhlR [1]; dose-response, E. coli reporter) |
| --- | --- | --- | --- | --- | --- | --- | --- | --- | --- | --- | --- | --- | --- | --- |
| O=C(N[C@H]1CCCC1=O)C1CCC1 [RN12] | 5.94 | > 50 | 93 | 6.8 fold | >56^b fold | 7.35 | 96 |  |  |  |  |  |  |  |
| O=C(COc1ccc(I)cc1)N[C@H]1CCSC1=O [RN22] |  | 1 |  |  |  |  |  | less than 4 fold | maintained its strong inhibitory profile | 31 | 85 | 74 | 1.5 |  |
| CC(C)CC(=O)N[C@H]1CCCC1=O [RN36] | 7.58 | > 50 | 101 | >84^b fold | 105^ fold | 11.2 | 96 |  |  |  |  |  |  |  |
| CC(C)CC(=O)N[C@H]1CCSC1=O [RN37] | 0.463 |  | 93 | 13 fold | >85^b fold | 2.58 | 91 |  |  |  |  |  |  | improves potency two-fold over the homoserine lactone variant; also recorded: most potent RhlR agonist found in the E. coli reporter |
